Laboratory results reported in US9801371B2, “Self-assembling polymer particle release system” (priority 2010, dated 2017).
Values joined by “and” are separate entries in the source; they are usually repeats but may differ in a detail not shown here. Identical values can stand only once. Like-named read-outs stand apart in the source and are kept apart here.

Legend:
[1] = cited from earlier work
[2] = Filter paper test: ten 10-ml water washings, UV analysis of AI washed through; type: physicochemical; settings: for R (rating factor, number of washings to deplete the AI): ten 10-ml water washings; for mobility on filter paper or soil: washed with several 10 ml aliquots of water
Description: All of the polymers in this set of experiments were combined with the AI at a 70% AI by weight to 30% polymer by weight concentrations. […] The filter paper samples were applied to a slightly wet Buchner funnel to set the paper evenly and then ten 10-ml aliquots of de-ionized (DI) water were suctioned through the filter paper. Ultraviolet light (UV) analysis for each of the 10-ml fractions was used to determine the absorption of the AI (264 nm) washed through the filter paper and recorded as absorption versus each individual 10-ml wash.
The control for these systems was evaluated by placing methylene chloride solutions of the AI alone or the polymer alone onto the filter paper, drying overnight, and washing with ten 10-ml aliquots of DI water.
The AI was dry ground (mortar and pestle) with urea-formaldehyde flower foam as the cage material [commercial product (Foliage Fresh)] where the ratio of AI to flower foam was 70%/30% by weight. This mixture then was tumbled-coated with an organic solvent solution of a hydrophobic polymer (paraffin wax/hexane; polystyrene/toluene; silicone oil/toluene) in a round bottom flask. […] Small amounts (0.07 g) of the powder were placed on the filter paper and subsequently washed with ten 10-ml aliquots of DI water and analyzed in a similar manner as previously described.
Liquid samples of the AI-polymer combinations and AI control samples were applied to filter paper (Whatman #2) and dried for 24 hours at room temperature. The filter paper containing the AI-polymer combination or the AI control samples were placed in a Buchner funnel under water aspiration vacuum conditions, while ten 10-ml aliquots of water were applied to the top of the filter paper containing the AI-polymer or AI control material, which was then sucked through the filter paper and collected in the receiving flask that holds the funnel-vacuum attachment.
After each 10-ml aliquot of water was suctioned through the filter paper containing the sample, the suctioned solution then was removed and analyzed with a UV spectrometer for any AI that went through the water washing process. The ten 10-ml sequential washings were a simulation of how an AI applied to soil would remain on the soil and migrate through the soil under a rain environmental exposure condition.
Dry 100% solid samples were placed on the filter paper directly and subsequently washed with ten 10-ml aliquots in a similar manner as the liquid samples that were dried after placement on the filter paper.
Various concentrations of the AI's were dissolved in water or water and a co-solvent and analyzed at 254 nm or other UV/visible regions of the spectrum in order to establish a standard calibration curve of absorbance versus AI concentration.

[3] = Table 26, USDA Pesticide Properties Database

Structure (SMILES): COP(=S)(OC)SCn1nnc2ccccc2c1=O [Azinphosmethyl]
- KOC ([1]; Tables 21-25): 1000

Structure (SMILES): CCOP(=S)(OCC)Oc1ccc([N+](=O)[O-])cc1 [Parathion]
- KOC ([1]; Tables 21-25): 7660

Structure (SMILES): CCOP(=S)(OCC)SCSC(C)(C)C [Terbufos]
- KOC [1, 3]: 500 mg/g

Structure (SMILES): CC(C)c1ccc(NC(=O)N(C)C)cc1 [Isoproturon]
- KOC ([1]; Tables 21-25): 122

Structure (SMILES): CN(C)C(=O)Nc1ccc(Cl)cc1 [Monuron]
- KOC ([1]; Tables 21-25): 150

Structure (SMILES): CN(C)c1nc(=O)n(C2CCCCC2)c(=O)n1C [Hezazinone]
- KOC ([1]; Tables 21-25): 54

Structure (SMILES): O=C(O)Cc1cccc2ccccc12 [1-Napthylacetic Acid]
- KOC ([1]; Tables 21-25): 385

Structure (SMILES): COc1nc(C)nc(NC(=O)NS(=O)(=O)c2ccccc2Cl)n1 [Chlorsulfuron]
- KOC ([1]; Tables 21-25): 36.3

Structure (SMILES): CN(C)C(=O)Nc1cccc(C(F)(F)F)c1 [Fluometuron]
- KOC ([1]; Tables 21-25): 67.4

Structure (SMILES): CC(C)C1(C)N=C(c2ncccc2C(=O)O)NC1=O (stereo not shown) [Imazapyr]
- % released ([2]; filter paper, 10-ml water washing 1, listed as AI Control): 49%
- % released ([2]; filter paper, 10-ml water washing 1, listed as IMI Acid): 41%
- % released ([2]; filter paper, 10-ml water washing 1, listed as IMI acid alone): 28%
- % released ([2]; filter paper, 10-ml water washing 2, listed as AI Control): 47% and 49%
- % released ([2]; filter paper, 10-ml water washing 2, listed as IMI Acid): 39% and 37%
- % released ([2]; filter paper, 10-ml water washing 2, listed as IMI acid alone): 30%
- % released ([2]; filter paper, 10-ml water washing 3, listed as AI Control): 4% and 2%
- % released ([2]; filter paper, 10-ml water washing 3, listed as IMI Acid): 14%
- % released ([2]; filter paper, 10-ml water washing 3, listed as IMI acid alone): 25%
- % released ([2]; filter paper, 10-ml water washing 4, listed as AI Control): 0%
- % released ([2]; filter paper, 10-ml water washing 4, listed as IMI Acid): 6% and 5%
- % released ([2]; filter paper, 10-ml water washing 4, listed as IMI acid alone): 13%
- % released ([2]; filter paper, 10-ml water washing 5, listed as AI Control): 0%
- % released ([2]; filter paper, 10-ml water washing 5, listed as IMI Acid): 0%
- % released ([2]; filter paper, 10-ml water washing 5, listed as IMI acid alone): 4%
- % released ([2]; filter paper, 10-ml water washing 6): 0%
- % released ([2]; filter paper, 10-ml water washing 7): 0%
- % released ([2]; filter paper, 10-ml water washing 8): 0%
- % released ([2]; filter paper, 10-ml water washing 9): 0%
- % released ([2]; filter paper, 10-ml water washing 10, * = not all released after 10 washings): 0%
- R (rating factor, number of washings to deplete the AI) ([2]; filter paper, listed as AI Control): 3
- R (rating factor, number of washings to deplete the AI) ([2]; filter paper, listed as AI control): 3
- R (rating factor, number of washings to deplete the AI) ([2]; filter paper, listed as IMI Acid): 4
- R (rating factor, number of washings to deplete the AI) ([2]; filter paper, listed as IMI acid alone): 5

Structure (SMILES): CCNc1nc(Cl)nc(NCC)n1 [Simazine]
- KOC ([1]; Tables 21-25): 130

Structure (SMILES): COc1cc(OC)nc(NC(=O)NS(=O)(=O)c2ncccc2C(=O)N(C)C)n1 [Nicosulfuron]
- KOC ([1]; Tables 21-25): 21

Structure (SMILES): CNC(=O)N(C)c1nnc(C(C)(C)C)s1 [Tebuthiuron]
- KOC [1, 3]: 80 mg/g

Structure (SMILES): CNC(=O)CSP(=S)(OC)OC [Dimethonate]
- KOC ([1]; Tables 21-25): 30

Structure (SMILES): Nc1c(Cl)c(Cl)nc(C(=O)O)c1Cl [Picloram]
- KOC ([1]; Tables 21-25): 35

Structure (SMILES): CC(C)N.O=C(O)COc1ccc(Cl)cc1Cl [2,4-D Amine Salt (Control)]
- R Values ([2]; R line of the washing table, filter paper): 2
- % released ([2]; washing 1, sample applied to filter paper and dried): 94%
- % released ([2]; washing 2, sample applied to filter paper and dried): 6%
- % released ([2]; washing 4, sample applied to filter paper and dried): 0%
- % released ([2]; washing 5, sample applied to filter paper and dried): 0%
- % released ([2]; washing 6, sample applied to filter paper and dried): 0%
- % released ([2]; washing 7, sample applied to filter paper and dried): 0%
- % released ([2]; washing 8, sample applied to filter paper and dried): 0%
- % released ([2]; washing 9, sample applied to filter paper and dried): 0%
- % released ([2]; washing 10, * = not all of the sample was released after 10 washings): 0%
- % released ([2]; washing 33, sample applied to filter paper and dried): 0%

Structure (SMILES): O=C(Nc1ccccc1)Nc1cnns1 [Thidiazuron]
- KOC ([1]; Tables 21-25): 742

Structure (SMILES): CCNc1nc(Cl)nc(NC(C)C)n1 [Atrazine]
- KOC ([1]; Tables 21-25): 100

Structure (SMILES): CCCSP(=O)(OCC)Oc1ccc(Br)cc1Cl (stereo not shown) [Profenofos]
- KOC ([1]; Tables 21-25): 2016

Structure (SMILES): CCOP(=S)(OCC)Oc1cc(C)nc(C(C)C)n1 [Diazinon]
- KOC [1, 3]: 1000 mg/g

Structure (SMILES): CCS(=O)(=O)c1cccnc1S(=O)(=O)NC(=O)Nc1nc(OC)cc(OC)n1 [Rimsulfuron]
- KOC ([1]; Tables 21-25): 47

Structure (SMILES): C[n+]1ccc(-c2cc[n+](C)cc2)cc1 [Paraquat]
- KOC [1, 3]: 1,000,000 mg/g

Structure (SMILES): O=C(Nc1nc(OC(F)F)cc(OC(F)F)n1)NS(=O)(=O)c1ccccc1C(=O)O [Primisulfuron]
- KOC ([1]; Tables 21-25): 50

Structure (SMILES): CCCC1COC(Cn2cncn2)(c2ccc(Cl)cc2Cl)O1 (stereo not shown) [Propiconazole]
- KOC ([1]; Tables 21-25): 1086

Structure (SMILES): CC(C)C1(C)N=C(c2nc3ccccc3cc2C(=O)O)NC1=O (stereo not shown) [Imazaquin]
- KOC ([1]; Tables 21-25): 18

Structure (SMILES): CCOP(=S)(OCC)Oc1nc(Cl)n(C(C)C)n1 [Isazofos]
- KOC ([1]; Tables 21-25): 155

Structure (SMILES): COC(=O)c1ccccc1S(=O)(=O)NC(=O)N(C)c1nc(C)nc(OC)n1 [Tribenuron-Methyl]
- KOC ([1]; Tables 21-25): 31

Structure (SMILES): CCOP(=S)(OCC)OC(Cl)C(Cl)(Cl)Cl (stereo not shown) [Chlorethoxyfos]
- KOC ([1]; Tables 21-25): 6100

Structure (SMILES): CCCOP(=S)(OCCC)SCC(=O)N1CCCCC1C (stereo not shown) [Piperophos]
- KOC ([1]; Tables 21-25): 5202

Structure (SMILES): COC(=O)c1cccc(C)c1S(=O)(=O)NC(=O)Nc1nc(OCC(F)(F)F)nc(N(C)C)n1 [Triflusulfuron-Methyl]
- KOC ([1]; Tables 21-25): 40

Structure (SMILES): CC(C)Nc1nc(Cl)nc(NC(C)C)n1 [Propazine]
- KOC ([1]; Tables 21-25): 154

Structure (SMILES): Clc1nc(Cl)nc(Nc2ccccc2Cl)n1 [Anilazine]
- KOC ([1]; Tables 21-25): 2000

Structure (SMILES): O=C(NC(=O)c1c(F)cccc1F)Nc1cc(Cl)c(OC(F)(F)C(F)C(F)(F)F)cc1Cl (stereo not shown) [Lufenuron]
- KOC ([1]; Tables 21-25): 41182

Structure (SMILES): CCOP(=S)(OCC)SCSCC [Phorate]
- KOC ([1]; Tables 21-25): 1660

Structure (SMILES): CSc1nc(NC(C)C)nc(NC(C)C)n1 [Prometryn]
- KOC ([1]; Tables 21-25): 400

Structure (SMILES): CCc1cnc(C2=NC(C)(C(C)C)C(=O)N2)c(C(=O)O)c1 (stereo not shown) [Imazethapyr]
- KOC ([1]; Tables 21-25): 52

Structure (SMILES): COC(=O)c1ccccc1S(=O)(=O)NC(=O)Nc1nc(C)cc(C)n1 [Sulfometuron-Methyl]
- KOC ([1]; Tables 21-25): 85

Structure (SMILES): CC1CCCCC1NC(=O)Nc1ccccc1 (stereo not shown) [Siduron]
- KOC ([1]; Tables 21-25): 420

Structure (SMILES): CCNc1nc(Cl)nc(NC(C)(C)C#N)n1 [Cyanazine]
- KOC ([1]; Tables 21-25): 190

Structure (SMILES): CN(C)C(=O)Nc1ccc(Cl)c(Cl)c1 [Diuron]
- KOC ([1]; Tables 21-25): 1067

Structure (SMILES): CC(COc1ccc(Oc2ccccc2)cc1)Oc1ccccn1 (stereo not shown) [Pyriproxyfen]
- % released ([2]; filter paper/soil release system, washing 1 (first line)): 0%
- % released ([2]; filter paper/soil release system, washing 3): 0%
- % released ([2]; filter paper/soil release system, washing printed 1 (second line)): 0%
- mobility on filter paper or soil [2]: no mobility
- mobility on filter paper or soil ([2]; listed as PPF): did not move with any of the water washes
- Koc ([1]; clay-loam soils): 58,000

Structure (SMILES): CCNc1nc(NC(C)C)nc(SC)n1 [Ametryn]
- KOC ([1]; Tables 21-25): 316

Structure (SMILES): CCOP(=S)(OCC)Oc1nc(Cl)c(Cl)cc1Cl [Chlorpyrifos]
- KOC [1, 3]: 6,000 mg/g

Structure (SMILES): COP(=S)(OC)Oc1cc(Cl)c(I)cc1Cl [Iodufenphos]
- KOC ([1]; Tables 21-25): 50000

Structure (SMILES): Cc1ccn2nc(S(=O)(=O)Nc3c(F)cccc3F)nc2n1 [Flumetsulam]
- KOC ([1]; Tables 21-25): 28

Structure (SMILES): CC(C)(C)C(O)C(Oc1ccc(Cl)cc1)n1cncn1 (stereo not shown) [Triadimenol]
- KOC ([1]; Tables 21-25): 273

Structure (SMILES): Cc1nn(-c2cc(NS(C)(=O)=O)c(Cl)cc2Cl)c(=O)n1C(F)F [Sulfentrazone]
- KOC ([1]; Tables 21-25): 43

Structure (SMILES): CCOP(=S)(OCC)SCCSCC [Disulfuton]
- KOC ([1]; Tables 21-25): 13454

Structure (SMILES): CCNc1nc(NC(C)(C)C)nc(SC)n1 [Terbutryn]
- KOC ([1]; Tables 21-25): 2000

Structure (SMILES): O=C(O)c1c(Cl)ccc2cc(Cl)cnc12 [Quinclorac]
- KOC ([1]; Tables 21-25): 50

Structure (SMILES): COP(=S)(OC)Oc1ccc(SC)c(C)c1 [Fenthion]
- KOC ([1]; Tables 21-25): 1500

Structure (SMILES): CS(=O)(=O)NC(=O)c1cc(Oc2ccc(C(F)(F)F)cc2Cl)ccc1[N+](=O)[O-] [Fomesafen]
- KOC ([1]; Tables 21-25): 50

Structure (SMILES): CCOC(=O)c1ccccc1S(=O)(=O)NC(=O)Nc1nc(Cl)cc(OC)n1 [Chlorimuron-Ethyl]
- KOC ([1]; Tables 21-25): 106

Structure (SMILES): Cc1cccc2sc3nncn3c12 [Tricyclazole]
- KOC ([1]; Tables 21-25): 169

Structure (SMILES): COc1nc(NC(C)C)nc(NC(C)C)n1 [Prometon]
- KOC ([1]; Tables 21-25): 150

Structure (SMILES): COP(=O)(OC)O/C(C)=C/C(=O)N(C)C [Dicrotophos]
- KOC ([1]; Tables 21-25): 75
